From patent US5684024A, “Pyrazole dimers compositions and methods for treating influenza” (priority 1996, dated 1997)

Columns and labels:
[1] = target: influenza A/WSN virus transcriptase (Influenza A virus, UniProt P03427+P03430+P15659); test: biochemical; details: read-out: IC50, concentration required to achieve 50% inhibition of influenza A/WSN virus transcriptase activity
[2] = test system: influenza A/WSN; test: Plaque reduction in MDCK cells, influenza A/WSN; details: 48 h, read-out: IC50, […], A/WSN
Protocol: (§1) Compounds were evaluated for antiviral activity against influenza A/WSN by plaque reduction in Madin Darby canine kidney (MDCK) cells. Duplicate monolayers of MDCK cells in 6 well plates were washed free of protein-containing media, infected with 50-100 plaque-forming units of virus (0.4 ml volume), and incubated at 37° C. for 60 min. After aspiration of the virus inoculum, a 0.6% agarose overlay (3 ml) containing Eagle minimal essential media, trypsin (8 μg/ml), and the appropriate drug dilution (final concentration of 1% DMSO) was added to the cell monolayer. Plates were incubated at 37° C. in a humidified atmosphere of 5% CO2 in air. After 48 h, monolayers were fixed with glutaraldehyde, stained with 0.1% crystal violet and the plaques were counted. The percentage of plaque inhibition relative to the infected control (no drug) plates were calculated for each drug concentration and the 50% inhibitory concentration (IC50) was determined.

[3] = test system: influenza A/Victoria; test: Plaque reduction in MDCK cells, influenza A/Victoria; details: 48 h, read-out: IC50, […], A/Victoria
Protocol: as §1

Row | SMILES | IC50 [1] | IC50 [2] | IC50 [3]
1 | CC(=O)C1=NN(c2ccc(C(=O)O)cc2C)C(=O)C1=C1C(=O)N(c2ccc(C(=O)O)cc2C)N=C1C(C)=O [Example 4, 3,3'-Bis[3-Methyl-4-(2-hydroxy-4-acetylpyrazolyl)-benzoic Acid]] | 200 nM | 50000 nM | 25000 nM
2 | COc1cc(C(=O)O)ccc1N1N=C(C(C)=O)C(=C2C(=O)N(c3ccc(C(=O)O)cc3OC)N=C2C(C)=O)C1=O [Example 5] | 1200 nM | – | –
3 | CC(=O)C1=NN(c2ccc(C(=O)O)c(Cl)c2)C(=O)C1=C1C(=O)N(c2ccc(C(=O)O)c(Cl)c2)N=C1C(C)=O [Example 6] | 800 nM | – | –
4 | CC(=O)C1=NN(c2ccc(C(=O)O)cc2)C(=O)C1=C1C(=O)N(c2ccc(C(=O)O)cc2)N=C1C(C)=O [Example 7] | 500 nM | 50000 nM | 30000 nM
5 | CC(=O)C1=NN(c2cccc(C(=O)O)c2)C(=O)C1=C1C(=O)N(c2cccc(C(=O)O)c2)N=C1C(C)=O [Example 8] | 350 nM | – | –
6 | CC(=O)C1=NN(c2ccc(Cl)c(C(=O)O)c2)C(=O)C1=C1C(=O)N(c2ccc(Cl)c(C(=O)O)c2)N=C1C(C)=O [Example 9] | 250 nM | – | –
7 | CC(=O)C1=NN(c2cc(C(=O)O)ccc2C)C(=O)C1=C1C(=O)N(c2cc(C(=O)O)ccc2C)N=C1C(C)=O [Example 10] | 350 nM | – | –
